Reference: PMC6193555 (Nutrition and cancer, 2017)

Columns and labels:
c-Met = c-Met (Homo sapiens, UniProt P08581); test: Z'-LYTE cell-free kinase assay, positive control; type: biochemical
c-Met (M1250T) = c-Met (M1250T) (Homo sapiens, UniProt P08581, M1250T); test: Z'-LYTE cell-free kinase assay; type: biochemical
Sequence of c-Met (M1250T) (P08581 956-1390 M1250T limits assumed): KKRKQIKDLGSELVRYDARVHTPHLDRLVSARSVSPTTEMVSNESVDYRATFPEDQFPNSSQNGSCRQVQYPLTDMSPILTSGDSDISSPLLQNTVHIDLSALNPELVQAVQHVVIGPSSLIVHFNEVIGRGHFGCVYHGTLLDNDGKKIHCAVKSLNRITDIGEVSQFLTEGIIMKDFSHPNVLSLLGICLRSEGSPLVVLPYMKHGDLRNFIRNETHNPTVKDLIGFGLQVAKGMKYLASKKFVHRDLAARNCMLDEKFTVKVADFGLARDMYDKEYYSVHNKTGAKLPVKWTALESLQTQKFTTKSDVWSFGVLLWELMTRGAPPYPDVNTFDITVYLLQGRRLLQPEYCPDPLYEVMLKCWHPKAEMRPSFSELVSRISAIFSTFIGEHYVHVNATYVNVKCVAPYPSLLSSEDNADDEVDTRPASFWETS

Sequence of c-Met (P08581 25-307): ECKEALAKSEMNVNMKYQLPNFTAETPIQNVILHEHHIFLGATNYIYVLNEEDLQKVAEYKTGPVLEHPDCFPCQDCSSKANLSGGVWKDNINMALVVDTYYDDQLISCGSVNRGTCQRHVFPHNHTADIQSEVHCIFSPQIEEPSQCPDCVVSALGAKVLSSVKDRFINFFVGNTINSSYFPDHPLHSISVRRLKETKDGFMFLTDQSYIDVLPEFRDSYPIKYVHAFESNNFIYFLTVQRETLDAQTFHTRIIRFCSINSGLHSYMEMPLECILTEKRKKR
Sequence of c-Met (P08581 308-1390): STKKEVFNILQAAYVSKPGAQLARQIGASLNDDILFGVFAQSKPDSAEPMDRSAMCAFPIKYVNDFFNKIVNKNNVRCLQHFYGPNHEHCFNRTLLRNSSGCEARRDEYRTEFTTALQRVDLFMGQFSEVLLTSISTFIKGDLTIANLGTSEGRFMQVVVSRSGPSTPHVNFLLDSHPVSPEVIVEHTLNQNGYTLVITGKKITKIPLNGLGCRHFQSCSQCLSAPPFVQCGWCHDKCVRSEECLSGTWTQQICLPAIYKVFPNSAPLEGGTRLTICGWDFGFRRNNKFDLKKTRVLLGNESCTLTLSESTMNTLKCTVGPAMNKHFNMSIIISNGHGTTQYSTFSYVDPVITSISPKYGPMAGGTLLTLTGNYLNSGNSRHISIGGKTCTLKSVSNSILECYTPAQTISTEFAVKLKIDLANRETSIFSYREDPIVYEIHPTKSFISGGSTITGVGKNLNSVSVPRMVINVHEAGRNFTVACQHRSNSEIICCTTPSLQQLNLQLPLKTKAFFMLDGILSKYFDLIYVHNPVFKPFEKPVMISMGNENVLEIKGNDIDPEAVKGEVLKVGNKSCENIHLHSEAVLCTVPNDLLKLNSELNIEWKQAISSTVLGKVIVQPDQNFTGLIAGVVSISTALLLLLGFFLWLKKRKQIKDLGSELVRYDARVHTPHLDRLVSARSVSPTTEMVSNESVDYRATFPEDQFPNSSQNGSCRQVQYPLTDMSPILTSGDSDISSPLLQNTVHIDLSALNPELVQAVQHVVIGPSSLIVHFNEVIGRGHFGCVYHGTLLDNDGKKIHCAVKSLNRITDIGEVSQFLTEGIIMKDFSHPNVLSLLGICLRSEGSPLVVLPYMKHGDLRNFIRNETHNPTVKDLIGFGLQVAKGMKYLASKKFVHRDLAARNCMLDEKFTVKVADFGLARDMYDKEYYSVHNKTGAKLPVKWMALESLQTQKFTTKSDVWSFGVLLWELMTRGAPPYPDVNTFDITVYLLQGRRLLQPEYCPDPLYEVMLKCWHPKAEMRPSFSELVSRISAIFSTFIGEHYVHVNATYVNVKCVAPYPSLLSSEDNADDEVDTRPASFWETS

| Structure (SMILES) | Z'-LYTE cell-free kinase assay, positive control (c-Met) | IC50 (c-Met (M1250T)) |
| --- | --- | --- |
| C/C=C(/C=O)[C@@H](CC=O)CC(=O)OCCc1ccc(O)cc1 [(–)-oleocanthal] | (–)-oleocanthal was utilized as a positive control in Z'-LYTE cell free assay as a documented c-Met inhibitory phenolic | – |
| C[C@@H]1O[C@@H](OC[C@H]2O[C@@H](Oc3c(-c4ccc(O)c(O)c4)oc4cc(O)cc(O)c4c3=O)[C@H](O)[C@@H](O)[C@@H]2O)[C@H](O)[C@H](O)[C@H]1O [compound 6, quercetin 3-O-[α-L-^1C4-rhamnopyranosyl 1'”→6” β-D-^4C1-glucopyranoside]] | – | 8.5 µM |
